Test results from publication PMC11236999, “Antagonism of propofol anesthesia by alkyl-fluorobenzene derivatives” (Scientific Reports, 2024).
Entries after “also recorded” stand apart in the source; their conditions may differ. Read-outs that look alike come from different tables or passages of the source.

Key:
[1] = HPLC concentration of volatile anesthetics in sealed glass 96-well plates over time; assay type: physicochemical; settings: 3M 300LSE adhesive seal, 3-hour mark
Procedure: Behavioral Experiments with Volatile Anesthetics. Solutions of inhaled volatile anesthetics were stored in glass vials with minimal head space and were transferred utilizing Hamilton gas-tight syringes to prevent evaporative loss. Isoflurane (Primal Care) was stored at 4°C, and sevoflurane (AbbVie Inc.) was stored at -20°C. Solutions were made in DMSO and then diluted in glass scintillation vials to the desired experimental concentrations in E3 (embryo water). Each vial contained 22 mL of E3 which minimized head space to prevent drug loss. Vials were sealed quickly after addition of volatile anesthetics to minimize loss. Solutions were mixed via vortexing, and anesthetics dissolved readily in the final DMSO concentration of 2%. […]
have a significant change in zebrafish behavior. To assure consistent concentration of volatile anesthetic, this experiment was repeated without fish and concentrations were measured by HPLC. […]
1-Aminoanthracene Competition Fluorescence Assay. […] After filtration, the 1-AMA concentration was determined by UV−vis spectroscopy utilizing an experimentally determined extinction coefficient of 1-AMA (Σ368 = 4073 M−1 cm−1).4 Stock solutions of ligand were prepared in DMSO. […] The fluorescence curves were corrected by subtracting contributions from 1-AMA alone and HSAF alone. Fluorescence intensities at 515 nm were plotted as a percentage […]

5 dpf larval zebrafish [2] = tested on: 5 dpf larval zebrafish; design: method as in PMID 32978423; settings: 5 dpf zebrafish, previously determined; read-out: EC50 for SM of the anesthetic; cited from earlier work
5 dpf larval zebrafish [3] = tested on: 5 dpf larval zebrafish; design: method as in PMID 32978423; settings: 5 dpf zebrafish, previously determined; read-out: EC50 for EM of the anesthetic; cited from earlier work
[4] = at 20°C; no reference given; cited from earlier work
[5] = molecular target: T1, horse spleen apoferritin (HSAF) (Equus caballus, UniProt P02791); experiment: 1-Aminoanthracene (1-AMA) competition fluorescence assay; assay type: binding
T1 construct: model protein HSAF (horse spleen apoferritin); purchased Sigma-Aldrich; host or cells: horse spleen (tissue-derived)
T1 sequence (P02791 2-175 limits assumed): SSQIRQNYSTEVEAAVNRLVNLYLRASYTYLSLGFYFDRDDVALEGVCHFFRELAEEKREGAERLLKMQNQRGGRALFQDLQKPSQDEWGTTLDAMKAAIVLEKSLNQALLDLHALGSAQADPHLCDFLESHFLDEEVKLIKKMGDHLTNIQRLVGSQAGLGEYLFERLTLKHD

5 dpf larval zebrafish [6] = experiment: Zebrafish behavioral model of anesthesia, spontaneous movement (SM); assay type: in vivo; settings: for Antagonism of propofol via SM: screen; for Antagonism of propofol via SM at 5 μM propofol: propofol 5 μM; for Spontaneous movement (SM), compound alone: PFAL compound alone at 10 and 30 μM, versus DMSO control
Procedure: (§1) Figure 2 Screening of PFAL compounds for antagonism of anesthesia. PFAL compounds were screened in 5 dpf zebrafish for their ability to antagonize the anesthetic effects of propofol (panels a, b, c and d) as well as sevoflurane and isoflurane (panels e and f). Each dot represents the data collected from one fish. Spontaneous movement (SM) is the distance of spontaneous swimming in a 4 min period, and elicited movement (EM) is distance moved in 1 s after exposure to a tap stimulus. Both measures were scaled to same-day DMSO controls. […] Mean and 95% CI are shown for each data set. Statistical comparison with both DMSO (D) only (black asterisks) and anesthetic control (Ctrl, gray asterisks) groups are shown. Note that each DMSO comparison is to the DMSO only control (sample on the furthest left of each graph, and the anesthetic control comparisons are made within each anesthetic grouping as indicated by the bars along the x-axis of each graph. ns: P > 0.05, *: P ≤ 0.05, **: P ≤ 0.01, ***: P ≤ 0.001, ****: P ≤ 0.0001).
(§2) Behavioral experiments (screening, EC50 curves) were performed as previously reported. Antagonism after induction was conducted in a similar manner with different timepoints and solution changes as indicated. The DanioVision Observation Chamber (Noldus) and Ethovision XT16 software were used to track and record (1280 × 960 resolution at 25 frames per second) larval zebrafish (5 dpf) movement in glass 96-well plates (Zissner North America 3,600,500). All experiments were performed at 28 °C with the DanioVision Temperature Control Unit. Zebrafish were allowed to equilibrate in E3 and 2% DMSO (with or without drug) for 10 min before being placed in the observation chamber for 22 min of recording. Two different endpoints were used to assess depth of anesthesia: spontaneous movement (SM) and elicited movement (EM). In these measures, fish movement was considered to be non-anesthetized. During each observation, fish were given time to acclimate to the chamber, and minutes 15–19 of the recording were used for analysis of SM. An EM response using the Daniovision tapping device (8 out of 8 intensity, movement response measured for 1 s after stimulus) was also measured at the end of the SM observation period. All recordings were scrutinized by a blind observer for technical errors in tracking to ensure accuracy of zebrafish detection and inaccurate tracking was excluded from further analysis. Toxicity was measured in separate experiments by exposing larvae to compounds for 30 min, transferring to fresh E3, and then observing mortality after exposure. […]

5 dpf zebrafish = experiment: Antagonism of anesthesia after induction (sequential addition); assay type: in vivo; settings: propofol 3 μM for 10 min, then propofol 3 μM plus 30 μM compound
Procedure: In the above studies, the anesthetic and PFAL compounds were co-administered to the fish simultaneously.
Figure 5 Further Characterization of Propofol Antagonism with Compounds 9 and 10. a and b 5 dpf zebrafish (n = 36) were first anesthetized with 3 μM propofol and then 30 μM of either compound 9 or 10 was added. Between minutes 5 and 10 there is a small gap in the data during which the propofol solution was removed and a solution containing propofol and PFAL compound was added. […] The mean and 95% CI is shown for each data point in all panels.
Behavioral experiments (screening, EC50 curves) were performed as previously reported. Antagonism after induction was conducted in a similar manner with different timepoints and solution changes as indicated. The DanioVision Observation Chamber (Noldus) and Ethovision XT16 software were used to track and record (1280 × 960 resolution at 25 frames per second) larval zebrafish (5 dpf) movement in glass 96-well plates (Zissner North America 3,600,500). […] An EM response using the Daniovision tapping device (8 out of 8 intensity, movement response measured for 1 s after stimulus) was also measured at the end of the SM observation period. […] Toxicity was measured in separate experiments by exposing larvae to compounds for 30 min, transferring to fresh E3, and then observing mortality after exposure.

5 dpf larval zebrafish [7] = experiment: Zebrafish behavioral model of anesthesia, elicited movement (EM, tap stimulus); assay type: in vivo; settings: for Antagonism of propofol via EM: screen
Procedure: as §1, §2

[8] = 10 μM PFAL compound co-administered with propofol
[9] = 30 μM PFAL compound co-administered with propofol (0.3, 1, 5 μM)

SMILES: FC(F)OC(Cl)C(F)(F)F (centres unmarked) [Isoflurane]
- Concentration remaining in sealed glass 96-well plate [1]: 96%
- EC50 (5 dpf larval zebrafish [2]): 42 µM
- EC50 (5 dpf larval zebrafish [3]): 180 µM
- Vapor pressure [4]: 238 mmHg

SMILES: CC(C)(C)c1ccc(C(C)(C)C)c(F)c1 [Compound 13, 1,4-ditertbutyl-2-fluorobenzene]
- Log(IC50), displacement of 1-AMA from HSAF ([5]; Fig. 6a, nb = non-binding): nb

SMILES: FCOC(C(F)(F)F)C(F)(F)F [Sevoflurane]
- Concentration remaining in sealed glass 96-well plate [1]: constant
- EC50 (5 dpf larval zebrafish [2]): 76 µM
- EC50 (5 dpf larval zebrafish [3]): 240 µM
- Vapor pressure [4]: 157 mmHg

SMILES: C1CCc2nnnn2CC1 [Pentylenetetrazole, pentylenetetrazole, reference compound]
- Pattern of movement (5 dpf larval zebrafish [6]; known epileptogenic comparator): uncontrolled movement (seizure)

SMILES: CC(C)c1ccc(C(C)C)c(F)c1 [Compound 10, 1,4-diisopropyl-2-fluorobenzene]
- Reversal of established propofol immobility (5 dpf zebrafish): rapid reversal of propofol immobility
- Elicited movement (EM), compound alone (5 dpf larval zebrafish [7]; PFAL compound alone at 10 and 30 μM, versus DMSO control): increased EM
- Schild-type analysis with EM (5 dpf larval zebrafish [7]; propofol EC50 curves (EM) at various concentrations of the compound, Fig. S6): no such relationship of antagonism was observed
- Inhibition of 1-AMA binding to HSAF ([5]; 15 μM 1-AMA, 15 μM HSAF dimer, ligand 1 to 125 μM): most potent inhibitors of 1-AMA binding
- Shape of IC50 curve for 1-AMA displacement ([5]; Fig. 6b): incomplete inhibition of 1-AMA binding
- Antagonism of propofol via SM (5 dpf larval zebrafish [6]; [8]): demonstrated antagonism of propofol
- Antagonism of propofol via SM at 1 μM propofol (5 dpf larval zebrafish [6]; 10 μM PFAL compound, propofol 1 μM): able to antagonize propofol
- Antagonism of propofol via SM at 5 μM propofol (5 dpf larval zebrafish [6]; 10 μM PFAL compound): did not show antagonism
- Antagonism of propofol via SM (5 dpf larval zebrafish [6]; [9]): showed antagonism of propofol; also recorded: statistically significant antagonism
- Antagonism of propofol via SM at 5 μM propofol (5 dpf larval zebrafish [6]; 30 μM PFAL compound): antagonized propofol
- IC50 (5 dpf larval zebrafish [6]; Danio rerio, 120 h, 5 dpf zebrafish exposed to 3 μM propofol, Fig. 5d, read-out: IC50 (antagonism of propofol)): 25.3 µM
- Spontaneous movement (SM), compound alone (5 dpf larval zebrafish [6]): increased SM
- Increase of propofol EC50 versus propofol alone, spontaneous movement (5 dpf larval zebrafish [6]; propofol plus 30 μM compound, Fig. 4a): ~ fourfold

SMILES: CC(C)(C)c1ccccc1F [Compound 11, 1-tertbutyl-2-fluorobenzene]
- Antagonism of propofol via EM (5 dpf larval zebrafish [7]; [8]): not to be statistically different than the propofol controls

SMILES: CCc1ccc(CC)c(F)c1 [Compound 7, 1,4-diethyl-2-fluorobenzene]
- Antagonism of propofol via EM (5 dpf larval zebrafish [7]; 30 μM PFAL compound co-administered with propofol): did not antagonize propofol
- Antagonism of propofol via SM (5 dpf larval zebrafish [6]; [9]): showed antagonism of propofol; also recorded: statistically significant antagonism
- Spontaneous movement (SM), compound alone (5 dpf larval zebrafish [6]): increased SM

SMILES: Cc1ccccc1F [Compound 2, 1-methyl-2-fluorobenzene]
- Antagonism of propofol via EM (5 dpf larval zebrafish [7]; [8]): not to be statistically different than the propofol controls

SMILES: CC(C)c1cccc(C(C)C)c1O [Propofol]
- EC50 (5 dpf larval zebrafish [7]; Danio rerio, propofol alone, Fig. 4b): 3.53 µM
- EC50 (5 dpf larval zebrafish [2]): 0.1 µM
- EC50 (5 dpf larval zebrafish [6]; Danio rerio, propofol alone, Fig. 4a): 0.14 µM
- EC50 (5 dpf larval zebrafish [3]): 3.8 µM
